Measured values: patent publication US8541572B2

tested on: TNF-α production in LPS-stimulated human whole blood; assay: Inhibition of TNF-α production from human whole blood (hWBA); format: cell-based; conditions: Homo sapiens, IC50 for TNF-α production, LPS-stimulated human whole blood; read-out: hWBA

Q: Which IC50 does the source give for `COc1ccc2c(c1)C(=O)N(C[C@@]1(C#Cc3cccnc3-c3cccnc3)NC(=O)NC1=O)C2` [Compound 2270] here?
A: Its IC50 is 2110 nM.

Q: How did the IC50 turn out when `COc1ccc2c(c1)C(=O)N(C[C@@]1(C#Cc3ccc(C(=NO)N4CCN(c5ccccc5)CC4)cc3)NC(=O)NC1=O)C2` [Compound 928] was run?
A: Its IC50 is 278 nM.

Q: With `COc1ccc2c(c1)C(=O)N(C[C@@]1(C#Cc3ccc(C(C)(C)C(N)=O)cc3)NC(=O)NC1=O)C2` [Compound 2262] as the molecule, how does the IC50 read?
A: Its IC50 is 517 nM.

Q: For `COc1ccc2c(c1)C(=O)N(C[C@@]1(C#Cc3ccc4oc(C5(C)NC(=O)NC5=O)cc4c3)NC(=O)NC1=O)C2` (some centres unmarked) [Compound 909], which IC50 is on record?
A: The IC50 was 292 nM.

Q: For `COc1ccc2c(c1)C(=O)N(C[C@]1(C#Cc3ccc(C(=O)NS(C)(=O)=O)nc3)NC(=O)NC1=O)C2` [Compound 901], which IC50 is on record?
A: Its IC50 is 1000 nM.

same assay, conditions: Homo sapiens, IC50 for inhibition of TNF-α production, LPS-stimulated human whole blood; read-out: hWBA

Q: For `COc1ccc2c(c1)C(=O)N(C[C@@]1(C#Cc3cnc4ccccc4c3CO)NC(=O)NC1=O)C2` [Compound 2219], which IC50 is on record?
A: Its IC50 is 8900 nM.

Q: With `COc1ccc2c(c1)C(=O)N(C[C@@]1(C#Cc3cc(C(N)=O)ccc3C)NC(=O)NC1=O)C2` [Compound 2220] as the molecule, how does the IC50 read?
A: Its IC50 is 417 nM.

Q: Which IC50 does the source give for `COc1ccc2c(c1F)C(=O)N(C[C@@]1(C#Cc3ccc(CN4CCN(C5CCCCC5)CC4)cc3)NC(=O)NC1=O)C2` [Compound 982] here?
A: Its IC50 is 255 nM.

Q: For `COc1ccc2c(c1)C(=O)N(C[C@@]1(C#Cc3ccc(-n4cn[nH]c4=O)cc3)NC(=O)NC1=O)C2` [Compound 1914], which IC50 is on record?
A: The IC50 was 538 nM.

same assay, conditions: IC50 for TNF-α production, LPS-stimulated human whole blood; read-out: hWBA

Q: How did the IC50 turn out when `CCN1CCN(c2ccc(O)c(-c3ccc(C#C[C@]4(CN5Cc6ccc(OC)cc6C5=O)NC(=O)NC4=O)cc3)n2)CC1` [Compound 936] was run?
A: The IC50 was 72.4 nM.

Q: For `COc1ccc2c(c1)CCN(C[C@@]1(C#Cc3ccc(C(=NO)N4CCCN(C)CC4)cc3)NC(=O)NC1=O)C2=O` [Compound 2317], which IC50 is on record?
A: Its IC50 is 639 nM.

Q: For `COc1ccc2c(c1)C(=O)N(C[C@@]1(C#Cc3cccnc3-c3cncnc3)NC(=O)NC1=O)C2` [Compound 2290], which IC50 is on record?
A: The IC50 was 1590 nM.

Q: How did the IC50 turn out when `COc1ccc2c(c1)C(=O)N(C[C@@]1(C#Cc3ccc(C(=NO)N4CCCC4)cc3)NC(=O)NC1=O)C2` [Compound 942] was run?
A: Its IC50 is 641 nM.

Q: Which IC50 does the source give for `COc1ccc2c(c1)C(=O)N(C[C@@]1(C#Cc3ccc(C(=NO)N4CCOCC4)s3)NC(=O)NC1=O)C2` [Compound 952] here?
A: Its IC50 is 571 nM.

same assay, conditions: IC50 for inhibition of TNF-α production, LPS-stimulated human whole blood

Q: Which “hWBA (nM)” value does the source give for `COc1ccc2c(c1)C(=O)N(C[C@@]1(C#Cc3ccc(-c4cccc(Cl)c4O)nc3)NC(=O)NC1=O)C2` [Compound 1315] here?
A: The value was “Inactive”.

same assay, conditions: IC50 for inhibition of TNF-α production, LPS-stimulated human whole blood; read-out: hWBA

Q: Which IC50 does the source give for `COc1ccc2c(c1F)C(=O)N(C[C@@]1(C#Cc3ccc(-c4ncccc4O)cc3)NC(=O)NC1=O)C2` [Compound 1010] here?
A: Its IC50 is 96 nM.

Q: With `CCN1CCN(Cc2ccc(C#C[C@]3(CN4Cc5ccc(OC)c(F)c5C4=O)NC(=O)NC3=O)cc2F)CC1` [Compound 983] as the molecule, how does the IC50 read?
A: Its IC50 is 250 nM.

Q: `COc1ccc2c(c1)C(=O)N(C[C@@]1(C#Cc3ccc(-c4cccc(C)c4O)nc3)NC(=O)NC1=O)C2` [Compound 1300] was tested. Which IC50 did it give?
A: Its IC50 is 3500 nM.

Q: Which IC50 does the source give for `COc1ccc2c(c1F)C(=O)N(C[C@@]1(C#Cc3ccc(CN4CCCCC4)nc3)NC(=O)NC1=O)C2` [Compound 967] here?
A: The IC50 was 785 nM.

Q: For `COc1ccc2c(c1)C(=O)N(C[C@@]1(C#Cc3ccc(C(=O)N4CCN(C5CC5)CC4)cc3)NC(=O)NC1=O)C2` [Compound 961], which IC50 is on record?
A: Its IC50 is 1160 nM.

Q: With `CCN1CCN(C(=O)C2CCC(=O)N2c2ccc(C#C[C@]3(CN4Cc5ccc(OC)cc5C4=O)NC(=O)NC3=O)cc2)CC1` (some centres unmarked) [Compound 1901] as the molecule, how does the IC50 read?
A: The IC50 was 113 nM.

Q: For `CCN1CCN(Cc2ccc(C#C[C@]3(CN4Cc5ccc(OC)cc5C4=O)NC(=O)NC3=O)cn2)CC1` [Compound 977], which IC50 is on record?
A: The IC50 was 782 nM.

Q: `COc1ccc2c(c1)C(=O)N(C[C@@]1(C#Cc3ccc(C(=O)N4CCN(C5CCCCC5)CC4)cc3)NC(=O)NC1=O)C2` [Compound 962] was tested. Which IC50 did it give?
A: Its IC50 is 578 nM.

Q: For `COc1ccc2c(c1)C(=O)N(C[C@@]1(C#Cc3ccc(-c4nc(-c5cccnc5)ccc4OC(C)=O)cc3)NC(=O)NC1=O)C2` [Compound 975], which IC50 is on record?
A: Its IC50 is 61.6 nM.

Q: `COc1ccc2c(c1)C(=O)N(C[C@@]1(C#Cc3cncc(-c4ccc(O)c(-c5cn[nH]c5)n4)c3)NC(=O)NC1=O)C2` [Compound 1707] was tested. Which IC50 did it give?
A: The IC50 was 374 nM.

Q: How did the IC50 turn out when `COc1ccc2c(c1)C(=O)N(C[C@@]1(C#Cc3ncc(C(=NO)N4CCN(c5cnccn5)CC4)cc3OC)NC(=O)NC1=O)C2` [Compound 1924] was run?
A: The IC50 was 515 nM.
